Laboratory results: patent US4041158A, “O-alkyl-0-[1-(3-nitrophenyl)-2-carbalkoxy-vinyl ]-thiono(thiol)-phosphoric (phosphonic) acid esters” (priority 1974, dated 1977)
Where two headings read alike, the source gives them in different places.

Experiments:
Drosophila melanogaster = test: Drosophila test; format: in vivo; conditions: 24 h, after 1 day, read-out: Degree of destruction in % after 1 day; for mortality at 0.001 % strength: 0.001% by weight active compound; for mortality at 0.01 % strength: 0.01% by weight active compound
Description: Solvent: 3 parts by weight of dimethylformamide
(§1) Emulsifier: 1 part by weight of alkylaryl polyglycol ether
To produce a suitable preparation of active compound, 1 part by weight of the active compound was mixed with the stated amount of solvent containing the stated amount of emulsifier, and the concentrate was diluted with water to the desired concentration.
1 cm^3 of the preparation of the active compound was applied with a pipette to a filter paper disc of 7 cm diameter. The wet disc was placed over the orifice of a glass vessel containing 50 vinegar flies (Drosophila melanogaster) and covered with a glass plate.
After the specified periods of time, the destruction was determined in %. 100% means that all the flies were killed; 0% means that no flies were killed.

Laphygma exigua = test: Laphygma test; format: in vivo
Description: (§2) Solvent: 3 parts by weight of acetone
as §1
To produce a suitable preparation of active compound, 1 part by weight of the active compound was mixed with the stated amount of solvent and the stated amount of emulsifier and the concentrate was diluted with water to the desired concentration.
Cotton leaves (Gossypium hirsutum) were sprayed with the preparation of the active compound until dew-moist and were then infested with caterpillars of the owlet moth (Laphygma exigua).
After the specified periods of time, the destruction in % was determined.

Toxicity test/peroral = conditions: in vivo, po; albino rat, peroral; evaluation after 7 days
Description: Test animal: Albino rat (Rattus norvegicus)
To produce a suitable preparation of active compound, 3 parts by weight of active compound were mixed with 2.8 parts by weight of highly-dispersed silica and 4.2 parts by weight of talc. Suspensions which contain, in 1 ml of liquid, the amount of active compound to be applied per 100 g of animal weight, were prepared from the above active compound concentrate, with a little added powdered vegetable gum, by grinding with water. Dosing was effected volumetrically after weighing the test animals. A steel knob-ended probe was used for oral administration. The evaluation was carried out in each case after the end of the above-mentioned time interval, calculated from the administration of the active compound.
The LD50 values (dose of active compound at which 50% of the treated animals were killed) were determined in the usual manner from the mortality figures of the doses, which were varied in geometrical progression.

insects and acarids = conditions: in vivo; cited from earlier work
Phaedon cochleariae = test: Phaedon larvae test (long-term action after spraying); format: in vivo; conditions: 0.05% active compound, Brassica oleracea
Description: as §2, §1
(§3) To produce a suitable preparation of active compound, 1 part by weight of the active compound was mixed with the stated amount of solvent containing the stated amount of emulsifier and the concentrate was diluted with water to the desired concentration.
(§4) Cabbage plants (Brassica oleracea), which were about 10-15 cm high, were sprayed with the preparation of the active compound until dripping wet.
After the specified periods of time, the plants were infested with mustard beetle larvae (Phaedon cochleariae). After intervals of 3 days, the destruction in % was determined. 100% means that all beetle larvae had been killed whereas 0% means that none of the beetle larvae had been killed.

Myzus persicae = test: Myzus test (long-term action after spraying); format: in vivo; conditions: 0.05% active compound, Brassica oleracea
Description: as §2, §1, §3, §4
After the specified periods of time, the plants were infested with aphids (Myzus persicae). After intervals of 3 days, the destruction in % was determined. 100% means that all aphids had been killed whereas 0% means that none of the aphids had been killed.

Lucilia cuprina = test: Test with parasitic fly larvae; format: in vivo; conditions: 24 hours, Lucilia cuprina res., read-out: Degree of destruction in %
Description: Solvent: 35 parts by weight of ethylene polyglycol monomethyl ether
35 parts by weight of nonylphenol polyglycol ether
To produce a suitable preparation of active compound, 30 parts by weight of the active substance in question were mixed with the stated amount of solvent which contained the abovementioned proportion of emulsifier and the concentrate thus obtained was diluted with water to the desired concentration.
About 20 fly larvae (Lucilia cuprina) were introduced into a test tube which contains approximately 2 cm^3 of horse muscle. 0.5 ml of the preparation of active compound was applied to this horse meat. After 24 hours, the degree of destruction in % was determined. 100% means that all larvae had been killed and 0% means that no larvae had been killed.

[1] = 0.001% by weight active compound
[2] = 0.01% by weight active compound
[3] = 96 h, 4 days, read-out: % destruction after 4 days
[4] = 192 h, 8 days, read-out: % destruction after 8 days

CCCOP(=S)(OCC)OC(=CC(=O)OC(C)C)c1cccc([N+](=O)[O-])c1 (stereo not drawn)
mortality at 0.001 % strength (Drosophila melanogaster): 98%
mortality at 0.01 % strength (Drosophila melanogaster): 100%

CCOC(=O)C=C(OP(=S)(OC)OC)c1cccc([N+](=O)[O-])c1
Degree of destruction in % after 3 days (Laphygma exigua; [1]): 85%
Degree of destruction in % after 3 days (Laphygma exigua; [2]): 100%

CCCOP(=S)(OCC)OC(=CC(=O)OCC)c1cccc([N+](=O)[O-])c1 (stereo not drawn)
LD50 at 168 h (Toxicity test/peroral): 50 to 100 mg/kg

CCOC(=O)C=C(OP(=S)(OCC)c1ccccc1)c1cccc([N+](=O)[O-])c1 (stereo not drawn)
LD50 at 168 h (Toxicity test/peroral): 50 to 100 mg/kg

CCOC(=O)C=C(OP(=S)(OC)OC)c1ccc([N+](=O)[O-])cc1 [Compound A, O,O-dimethyl-O-[1-(4-nitrophenyl)-2-carbethoxyvinyl]-thionophosphoric acid ester]
insecticidal and acaricidal properties (insects and acarids): possess insecticidal and acaricidal properties

CCOC(=O)C=C(OP(=S)(OCC)OCC)c1ccc([N+](=O)[O-])cc1 [Compound B, O,O-diethyl-O-[1-(4-nitrophenyl)-2-carbethoxyvinyl]-thionophosphoric acid ester]
insecticidal and acaricidal properties (insects and acarids): possess insecticidal and acaricidal properties

CCOC(=O)C=C(OP(=S)(OC)OC)c1ccc([N+](=O)[O-])cc1 [drawing 8, reference compound]
mortality at 0.001 % strength (Drosophila melanogaster): 0%
mortality at 0.01 % strength (Drosophila melanogaster): 100%

CCOC(=O)C=C(OP(=S)(OCC)OCC)c1cccc([N+](=O)[O-])c1 [drawing 9]
mortality at 0.001 % strength (Drosophila melanogaster): 99%
mortality at 0.01 % strength (Drosophila melanogaster): 100%

CCOP(=S)(OCC)OC(=CC(=O)OC(C)C)c1cccc([N+](=O)[O-])c1 [drawing 10]
mortality at 0.001 % strength (Drosophila melanogaster): 100%
mortality at 0.01 % strength (Drosophila melanogaster): 100%

CCOC(=O)C=C(OP(=S)(OC)OC)c1ccc([N+](=O)[O-])cc1 [drawing 12, reference compound]
Degree of destruction in % after 3 days (Laphygma exigua; [1]): 0%
Degree of destruction in % after 3 days (Laphygma exigua; [2]): 100%

CCOC(=O)C=C(OP(=S)(OCC)OCC)c1cccc([N+](=O)[O-])c1 [drawing 14]
Degree of destruction in % after 3 days (Laphygma exigua; [1]): 100%
Degree of destruction in % after 3 days (Laphygma exigua; [2]): 100%

CCOP(=S)(OCC)OC(=CC(=O)OC(C)C)c1cccc([N+](=O)[O-])c1 [drawing 19]
Degree of destruction in % after 3 days (Laphygma exigua; [1]): 100%
Degree of destruction in % after 3 days (Laphygma exigua; [2]): 100%

CCOC(=O)C=C(OP(=S)(OCC)OCC)c1ccc([N+](=O)[O-])cc1 [drawing 20]
mortality at 0.05 % strength (Phaedon cochleariae; [3]): 100%
mortality at 0.05 % strength (Phaedon cochleariae; [4]): 100%
mortality at 0.05 % strength (Phaedon cochleariae; 264 h, 11 days, read-out: % destruction after 11 days): 50%
mortality at 0.05 % strength (Phaedon cochleariae; 360 h, 15 days, read-out: % destruction after 15 days): 0%

CCOC(=O)C=C(OP(=S)(OCC)OCC)c1ccc([N+](=O)[O-])cc1 [drawing 23]
mortality at 0.05 % strength (Myzus persicae; [3]): 50%
mortality at 0.05 % strength (Myzus persicae; [4]): 0%

CCOC(=O)C=C(OP(=S)(OCC)OCC)c1ccc([N+](=O)[O-])cc1 [drawing 26, reference compound]
LD50 at 168 h (Toxicity test/peroral): 10 to 25 mg/kg

CCCSP(=S)(OCC)OC(=CC(=O)OCC)c1cccc([N+](=O)[O-])c1 (stereo not drawn) [drawing 27]
LD50 at 168 h (Toxicity test/peroral): 100 to 250 mg/kg

CCCSP(=S)(OCC)OC(=CC(=O)OCC)c1cccc([N+](=O)[O-])c1 (stereo not drawn) [drawing 30]
mortality at 10 ppm (Lucilia cuprina): 100%
mortality at 30 ppm (Lucilia cuprina; 30 ppm): 100%
mortality at 100 ppm (Lucilia cuprina): 100%

CCOC(=O)C=C(OP(=S)(OCC)OCC)c1ccc([N+](=O)[O-])cc1 [drawing 31]
mortality at 10 ppm (Lucilia cuprina): > 50%
mortality at 100 ppm (Lucilia cuprina): 100%
